The results in this text go back to patent publication US20140107051A1, “ISOFLAVONES FOR TREATING MUCOPOLYSACCHARIDOSES” (INSTYTUT FARMACEUTYCZNY, priority 2005, published 2014).

In data set [1] the test system is cultured human skin fibroblasts derived from normal individuals. As to the kind of experiment: 35S-sulphate incorporation test of glycosaminoglycans synthesis, normal cells. The note with it: 30 μM; for activity at 30 µM: Homo sapiens, Skin fibroblast, DMSO control = 1, read-out: Relative GAG synthesis (converted to 1 cell), Normal cells. It is filed as cell-based. As for the experimental part: (§1) The activity of isoflavones was evaluated by the measure of glycosaminoglycans synthesis in 35S-sulphate incorporation test comprising incubation of the radiolabelled 35S-sulfate into GAGs in cultured human skin fibroblasts derived from normal individuals (control) and patients affected with mucopolysaccharidose (Murata et al., Arch Biochem Biophys 2003; 413: 229-235).
(§2) The negative control was DMSO (diluent for genistein and all derivatives), the positive control—genistein. […] Experiment with each cell line has been repeated twice, and every measurement has been done twice.

Data set [2] concerns fibroblasts of patients affected with MPS I. As to the kind of experiment: 35S-sulphate incorporation test of glycosaminoglycans synthesis, MPS I cells. Particulars: Homo sapiens, Fibroblast, 30 μM; DMSO control = 1; read-out: Relative GAG synthesis (converted to 1 cell), MPS I. In kind it is cell-based, human. The method, then: as §1, §2
Data set [3] relates to cultured human skin fibroblasts derived from patients affected with mucopolysaccharidose. The data set is described as follows: 35S-sulphate incorporation test of glycosaminoglycans synthesis, different human cell lines / MPS types. It is filed as cell-based. Particulars: 30 μM; both cell lines of Table 2. The method, then: as §1, §2
Data set [4] is described as follows: Proliferation 144 h (Table 4). In kind it is cell-based. The note with it: read-out: Proliferation 144 h IC50.
Another data set relates to MPS IIIA fibroblasts. As to the kind of experiment: Number of lysosomal structures by electron microscopy, MPS IIIA. In kind it is cell-based, human. Particulars: 30 μM.
The test system of the next data set is MPS IIIB fibroblasts. As to the kind of experiment: Number of lysosomal structures by electron microscopy, MPS IIIB. It is filed as cell-based, human. The note with it: 30 μM.

Turning to `Nc1ccccc1C(=O)Oc1ccc(-c2coc3cc(O)cc(O)c3c2=O)cc1` [IFG-001], the activity at 30 µM was determined as 84% in data set [1] and 170% in data set [2]. The compound further showed a CC50 at 24 h in the data set “in vitro” of 13.9 µM.

Turning to `CC(=O)OCC1OC(Oc2cc(O)c3c(=O)c(-c4ccc(O)cc4)coc3c2)C=CC1OC1OC(COC(C)=O)C(OC(C)=O)C(OC(C)=O)C1OC(C)=O` (centres unmarked) [IFG-021], the activity at 30 µM in data set [1] is 57%; in data set [2] it was 92%. The compound further showed a CC50 at 24 h in “in vitro” of 11 µM.

`C=CCOc1cc(O)c2c(=O)c(-c3ccc(O)cc3)coc2c1` [IFG-027]: in data set [1], the “Inhibition in relation to genistein, first symbol (normal cells)” value (from here on “Inhibition in relation to genistein”) is reported as 0/0 and the activity at 30 µM turned out to be 22%. Besides, the activity at 30 µM in data set [2] amounted to 57%. Moreover, the “influence on GAG synthesis compared with genistein (in words)” value in data set [3] was “an activity comparable with genistein”. In “in vitro”, this compound showed a CC50 at 24 h of 13.1 µM.

On to `C=CCOc1ccc(-c2coc3cc(OCC=C)cc(O)c3c2=O)cc1` [IFG-035], for which, in data set [1], the “Inhibition in relation to genistein” value was found to be 0 and the activity at 30 µM is 26%. For the same compound, the activity at 30 µM in data set [2] stood at 117%. Further, the “influence on GAG synthesis compared with genistein (in words)” value in data set [3] was “an activity comparable with genistein, but only for one cell line”. In the data set “in vitro”, this compound had a CC50 at 24 h of 22.6 µM.

Consider `CC(C)(C)OC(=O)COc1ccc(-c2coc3cc(OCC(=O)OC(C)(C)C)cc(O)c3c2=O)cc1` [IFG-042], for which, in data set [1], the “Inhibition in relation to genistein” value is reported as “+” and the activity at 30 µM turned out to be 14%. Moreover, the activity at 30 µM in data set [2] amounted to 49%. In data set [3], the “influence on GAG synthesis compared with genistein (in words)” value is listed as “stronger influence on GAG synthesis than genistein”. For the same compound, the CC50 at 24 h in the data set “in vitro” worked out at 22 µM.

Take `O=c1c(-c2ccc(O)cc2)coc2cc(OCc3ccccc3)cc(O)c12` [IFG-043]: in data set [1], the “Inhibition in relation to genistein” value is reported as “+” and the activity at 30 µM was 17%. The activity at 30 µM in data set [2] was 44%. For the same compound, the “influence on GAG synthesis compared with genistein (in words)” value in data set [3] is on record as “an activity comparable with genistein”. In addition, the CC50 at 24 h in the data set “in vitro” was found to be 14.5 µM.

For `CC(C)(C)OC(=O)COc1ccc(-c2coc3cc(O)cc(O)c3c2=O)cc1` [IFG-048], the figures for the activity at 30 µM in data set [1] and in data set [2] were 70% and 92%, respectively. For the same compound, the “influence on GAG synthesis compared with genistein (in words)” value in data set [3] is on record as “an activity comparable with genistein, but only for one cell line”. The compound also yielded a CC50 at 24 h in the data set “in vitro” of 20.3 µM.

Consider `O=c1c(-c2ccc(O)cc2)coc2cc(OCC3CO3)cc(O)c12` (centres unmarked) [IFG-050], for which the “Inhibition in relation to genistein” value in data set [1] is “+”. Further, the results for the activity at 30 µM in data set [1] and in data set [2] were 10% and 73%, respectively. For the same compound, the “influence on GAG synthesis compared with genistein (in words)” value in data set [3] is “stronger influence on GAG synthesis than genistein”. In “in vitro”, this compound came in with a CC50 at 24 h of 11.6 µM.

For `C=CCOc1ccc(-c2coc3cc(OCc4ccccc4)cc(O)c3c2=O)cc1` [IFG-051], in data set [1], the “Inhibition in relation to genistein” value stood at 0 and the activity at 30 µM was 32%. In addition, in data set [2], the activity at 30 µM amounted to 96%. The “influence on GAG synthesis compared with genistein (in words)” value in data set [3] is reported as “an activity comparable with genistein, but only for one cell line”. Besides, the CC50 at 24 h in the data set “in vitro” came to 14.6 µM.

Consider `O=C(O)COc1cc(O)c2c(=O)c(-c3ccc(O)cc3)coc2c1` [IFG-054], for which, in data set [1], the “Inhibition in relation to genistein” value is on record as 0/0 and the activity at 30 µM is 30%. In addition, the activity at 30 µM in data set [2] stood at 53%. Besides, the IC50 in data set [4] was more than 30 µM. In addition, in the data set “in vitro”, the CC50 at 24 h is more than 30 µM and the CC50 at 48 h was more than 30 µM.

Consider `O=C(O)CCCC(=O)Oc1ccc(-c2coc3cc(OCc4ccccc4)cc(O)c3c2=O)cc1` [IFG-060], for which, in data set [1], the “Inhibition in relation to genistein” value is “−” and the activity at 30 µM was 43%. For the same compound, in data set [2], the activity at 30 µM came to 31%. Also, in the data set “in vitro”, the CC50 at 24 h was found to be 14.9 µM.

As for `COc1ccc(COc2cc(O)c3c(=O)c(-c4ccc(O)cc4)coc3c2)cc1` [IFG-062], the results for the activity at 30 µM in data set [1] and in data set [2] were 316% and 561%, respectively. The same compound returned a CC50 at 24 h in the data set “in vitro” of 12.1 µM.

In the case of `C=CCOC(=O)Oc1cc(O)c2c(=O)c(-c3ccc(O)cc3)coc2c1` [IFG-063], the values for the activity at 30 µM in data set [1] and in data set [2] were 75% and 187%, respectively. The same compound registered a CC50 at 24 h in “in vitro” of 51.5 µM.

In the case of `CC(C)Oc1ccc(-c2coc3cc(OCc4ccccc4)cc(O)c3c2=O)cc1` [IFG-064], the activity at 30 µM in data set [1] is 68%; in data set [2], 60%. Besides, the “influence on GAG synthesis compared with genistein (in words)” value in data set [3] was “an activity comparable with genistein, but only for one cell line”. In “in vitro”, the CC50 at 24 h came out at 6.6 µM.

As to `CC(C)Oc1ccc(-c2coc3cc(OCc4ccccc4)cc(OC(C)C)c3c2=O)cc1` [IFG-065], the activity at 30 µM worked out at 152% in data set [1] and 97% in data set [2]. The compound also came in with a CC50 at 24 h in the data set “in vitro” of 22.7 µM.

As to `CC(=O)Oc1ccc(-c2coc3cc(OCc4ccccc4)cc(O)c3c2=O)cc1` [IFG-067], the values for the activity at 30 µM in data set [1] and in data set [2] were 67% and 61%, respectively. The CC50 at 24 h in the data set “in vitro” amounted to 15.1 µM.

On to `COC(=O)COc1cc(O)c2c(=O)c(-c3ccc(O)cc3)coc2c1` [IFG-070, [5-hydroxy-3-(4-hydroxyphenyl)-4-oxo-4H-chromen-7-yloxy]-acetic acid methyl ester], for which the IC50 in data set [4] was 48.1 µM. Also, in “in vitro”, the CC50 at 24 h was more than 30 µM and the CC50 at 48 h was more than 30 µM.

Consider `CC(=O)OCCCCCOc1cc(O)c2c(=O)c(-c3ccc(O)cc3)coc2c1` [IFG-071, acetic acid 5-[5-hydroxy-3-(4-hydroxyphenyl)-4-oxo-4H-chromen-7-yloxy]-pentyl ester], for which, in data set [4], the IC50 was found to be 17.9 µM. In addition, in the data set on MPS IIIA fibroblasts, the “Number of structures per 100 μm^2 of cellular cross section ± SD, amorphous” value is listed as 0.25 ± 0.11 per 100 μm^2; the “Number of structures per 100 μm^2 of cellular cross section ± SD, complexed” value is 0.26 ± 0.09 per 100 μm^2; the “Number of structures per 100 μm^2 of cellular cross section ± SD, lamellar” value is on record as 0.28 ± 0.13 per 100 μm^2; the “Number of structures per 100 μm^2 of cellular cross section ± SD, total number” value was determined as 0.79 ± 0.22 per 100 μm^2. In the data set on MPS IIIB fibroblasts, the “Number of structures per 100 μm^2 of cellular cross section ± SD, amorphous” value was 0.13 ± 0.09 per 100 μm^2; the “Number of structures per 100 μm^2 of cellular cross section ± SD, complexed” value amounted to 0.07 ± 0.06 per 100 μm^2; the “Number of structures per 100 μm^2 of cellular cross section ± SD, lamellar” value is recorded as 0.07 ± 0.07 per 100 μm^2; the “Number of structures per 100 μm^2 of cellular cross section ± SD, total number” value worked out at 0.26 ± 0.13 per 100 μm^2. In “in vitro”, this compound gave a CC50 at 24 h of more than 30 µM and a CC50 at 48 h of 57.6 µM.

As to `O=c1c(-c2ccc(O)cc2)coc2cc(OCCO)cc(O)c12` [IFG-073, 5-hydroxy-7-(2-hydroxyethoxy)-3-(4-hydroxyphenyl)-chromen-4-one], the IC50 in data set [4] came to 16.1 µM. In “in vitro”, the CC50 at 24 h was 27.5 µM and the CC50 at 48 h was 21.7 µM.
